Assay results reported in patent publication US10457703B2, “Bile acid derivatives as FXR/TGR5 agonists and methods of use thereof” (ENANTA PHARMACEUTICALS, INC., priority 2015, dated 2019).

Target: human FXR (NR1H4) (Homo sapiens (Human), UniProt Q96RI1)
Test: Human FXR (NR1H4) Assay (Gal4 promoter driven luciferase reporter, Indigo Bioscience kit);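 on Efficacy (%): 100% equals the efficacy of CDCA; efficacy normalized to CDCA set as 100%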
Format: cell-based
Conditions: for EC50: Human FXR (NR1H4) Assay, potency ranges; for Emax: read-out: Efficacy (%)
Excerpt: ASSAYS Human FXR (NR1H4) Assay
Determination of a ligand mediated Gal4 promoter driven transactivation to quantify ligand binding mediated activation of FXR. FXR Reporter Assay kit purchased from Indigo Bioscience (Catalogue number: IB00601) to determine the potency and efficacy of compound developed by Enanta that can induce FXR activation. The principle application of this reporter assay system is to quantify functional activity of human FXR. The assay utilizes non-human mammalian cells, CHO (Chinese hamster ovary) cells engineered to express human NR1H4 protein (referred to as FXR). Reporter cells also incorporate the cDNA encoding beetle luciferase which catalyzes the substrates and yields photon emission. Luminescence intensity of the reaction is quantified using a plate-reading luminometer, Envision. Reporter Cells include the luciferase reporter gene functionally linked to an FXR responsive promoter. Thus, quantifying changes in luciferase expression in the treated reporter cells provides a sensitive surrogate measure of the changes in FXR activity. […] The assay is according to the manufacturer's instructions. In brief, the assay was performed in white, 96 well plates using final volume of 100 uL containing cells with different doses of compounds. Retrieve Reporter Cells from −80° C. storage. Perform a rapid thaw of the frozen cells by transferring a 10 ml volume of 37° C. cell recovery medium into the tube of frozen cells. Recap the tube of Reporter Cells and immediately place it in a 37° C. water bath for 5-10 minutes. Retrieve the tube of Reporter Cell Suspension from the water bath. Sanitize the outside surface of the tube with a 70% alcohol swab, and then transfer it into the cell culture hood. Dispense 90 μl of cell suspension into each well of the 96-well Assay Plate. Transfer the plate into 37° C. incubator, allowing the cells adherent to the bottom of the well. Dilute compounds in Dilution Plate (DP), and administrate to cells at Assay Plate (AP). DMSO content of the samples was kept at 0.2%. Cells were incubated for additional 22 hours before luciferase activities were measured. Thirty minutes before intending to quantify FXR activity, remove Detection Substrate and Detection Buffer from the refrigerator and place them in a low-light area so that they may equilibrate to room temperature. Remove the plate's lid and discard all media contents by ejecting it into an appropriate waste container. Gently tap the inverted plate onto a clean absorbent paper towel to remove residual droplets. Cells will remain tightly adhered to well bottoms. Add 100 μl of luciferase detection reagent to each well of the assay plate. Allow the assay plate to rest at room temperature for at least 5 minutes following the addition of LDR. Set the instrument (Envision) to perform a single 5 second “plate shake” prior to reading the first assay well. Read time may be 0.5 second (500 mSec) per well.

human FXR (NR1H4), sequence (Q96RI1 whole entry, the tested form may be a part): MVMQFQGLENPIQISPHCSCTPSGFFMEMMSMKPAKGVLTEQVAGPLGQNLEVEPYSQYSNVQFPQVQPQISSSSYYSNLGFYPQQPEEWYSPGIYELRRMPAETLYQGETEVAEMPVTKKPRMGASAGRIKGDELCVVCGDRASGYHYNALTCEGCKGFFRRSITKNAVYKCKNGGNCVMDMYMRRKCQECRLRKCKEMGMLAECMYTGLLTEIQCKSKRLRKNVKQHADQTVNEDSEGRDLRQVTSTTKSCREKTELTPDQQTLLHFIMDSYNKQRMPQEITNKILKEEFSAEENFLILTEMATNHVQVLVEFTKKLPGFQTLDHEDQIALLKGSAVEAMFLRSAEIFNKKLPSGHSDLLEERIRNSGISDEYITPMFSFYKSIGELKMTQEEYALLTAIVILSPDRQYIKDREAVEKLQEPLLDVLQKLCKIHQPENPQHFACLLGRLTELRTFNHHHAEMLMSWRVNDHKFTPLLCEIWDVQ

| Structure (SMILES) | EC50 [nM] | Emax [%] |
| --- | --- | --- |
| CC[C@H]1[C@@H](O)[C@@H]2[C@H](CC[C@]3(C)[C@@H]([C@H](C)CCOC(=O)N4CCC(N5CCCCC5)CC4)CC[C@@H]23)[C@@]2(C)CC[C@@H](O)C[C@@H]12 [Example 178] | 100 to 1000 | 196 |
| CC[C@H]1[C@@H](O)[C@@H]2[C@H](CC[C@]3(C)[C@@H]([C@H](C)CCOC(=O)NS(=O)(=O)CCC(=O)OC)CC[C@@H]23)[C@@]2(C)CC[C@@H](O)C[C@@H]12 [Example 92] | 1000 to 10000 | 218 |
| CC[C@H]1[C@@H](O)[C@@H]2[C@H](CC[C@]3(C)[C@@H]([C@H](C)CCOC(=O)NS(=O)(=O)CCc4cccc(Cl)c4)CC[C@@H]23)[C@@]2(C)CC[C@@H](O)C[C@@H]12 [Example 91] | 100 to 1000 | 313 |
| CC[C@H]1[C@@H](O)[C@@H]2[C@H](CC[C@]3(C)[C@@H]([C@H](C)CCOC(=O)NS(=O)(=O)c4cccc(C(F)(F)F)c4)CC[C@@H]23)[C@@]2(C)CC[C@@H](O)C[C@@H]12 [Example 78] | 100 to 1000 | 365 |
| CC[C@H]1[C@@H](O)[C@@H]2[C@H](CC[C@]3(C)[C@@H]([C@H](C)CCOC(=O)N4CC(CO)C4)CC[C@@H]23)[C@@]2(C)CC[C@@H](O)C[C@@H]12 [Example 214] | < 100 | 194 |
| CC[C@H]1[C@@H](O)[C@@H]2[C@H](CC[C@]3(C)[C@@H]([C@H](C)CCCOC(=O)NS(=O)(=O)C(C)C)CC[C@@H]23)[C@@]2(C)CC[C@@H](O)C[C@@H]12 [Example 114] | 100 to 1000 | 345 |
| CC[C@H]1[C@@H](O)[C@@H]2[C@H](CC[C@]3(C)[C@@H]([C@H](C)COC(=O)NS(=O)(=O)c4ccc(N5CCCCC5=O)cc4)CC[C@@H]23)[C@@]2(C)CC[C@@H](O)C[C@@H]12 [Example 18] | < 100 | 221 |
| CC[C@H]1[C@@H](O)[C@@H]2[C@H](CC[C@]3(C)[C@@H]([C@H](C)CCCOC(=O)NC4CCCCC4)CC[C@@H]23)[C@@]2(C)CC[C@@H](O)C[C@@H]12 [Example 126] | 1000 to 10000 | 187 |
| CC[C@H]1[C@@H](O)[C@@H]2[C@H](CC[C@]3(C)[C@@H]([C@H](C)CCOC(=O)N4CC(=O)N(Cc5ccccc5)S4(=O)=O)CC[C@@H]23)[C@@]2(C)CC[C@@H](O)C[C@@H]12 [Example 109] | 1000 to 10000 | 142 |
| CC[C@H]1[C@@H](O)[C@@H]2[C@H](CC[C@]3(C)[C@@H]([C@H](C)CCCOC(=O)Nc4ccc(C(C)(C)C)cc4)CC[C@@H]23)[C@@]2(C)CC[C@@H](O)C[C@@H]12 [Example 121] | 1000 to 10000 | 8 |
| CC[C@H]1[C@@H](O)[C@@H]2[C@H](CC[C@]3(C)[C@@H]([C@H](C)CCOC(=O)NCC(C)(C)C)CC[C@@H]23)[C@@]2(C)CC[C@@H](O)C[C@@H]12 [Example 190] | 100 to 1000 | 410 |
| CC[C@H]1[C@@H](O)[C@@H]2[C@H](CC[C@]3(C)[C@@H]([C@H](C)CCOC(=O)NC(C)C)CC[C@@H]23)[C@@]2(C)CC[C@@H](O)C[C@@H]12 [Example 136] | 100 to 1000 | 185 |
| CC[C@H]1[C@@H](O)[C@@H]2[C@H](CC[C@]3(C)[C@@H]([C@H](C)CCOC(=O)NCC4CCCCC4)CC[C@@H]23)[C@@]2(C)CC[C@@H](O)C[C@@H]12 [Example 188] | 100 to 1000 | 459 |
| CC[C@H]1[C@@H](O)[C@@H]2[C@H](CC[C@]3(C)[C@@H]([C@H](C)COC(=O)NS(=O)(=O)c4ccc5ccccc5c4)CC[C@@H]23)[C@@]2(C)CC[C@@H](O)C[C@@H]12 [Example 12] | < 100 | 217 |
| CC[C@H]1[C@@H](O)[C@@H]2[C@H](CC[C@]3(C)[C@@H]([C@H](C)CCOC(=O)NS(=O)(=O)c4cnccn4)CC[C@@H]23)[C@@]2(C)CC[C@@H](O)C[C@@H]12 [Example 99] | 1000 to 10000 | 51 |
| CC[C@H]1[C@@H](O)[C@@H]2[C@H](CC[C@]3(C)[C@@H]([C@H](C)COC(=O)NS(=O)(=O)c4ccc(N5CCC(C)(C)CC5)cc4)CC[C@@H]23)[C@@]2(C)CC[C@@H](O)C[C@@H]12 [Example 20] | < 100 | 203 |

| Structure (SMILES) | EC50 [nM] | Emax [%] |
| --- | --- | --- |
| CC[C@H]1[C@@H](O)[C@@H]2[C@H](CC[C@]3(C)[C@@H]([C@H](C)CCOC(=O)NS(=O)(=O)N4CC(C)(C)C4)CC[C@@H]23)[C@@]2(C)CC[C@@H](O)C[C@@H]12 [Example 104-g] | < 100 | 289 |
| CC[C@H]1[C@@H](O)[C@@H]2[C@H](CC[C@]3(C)[C@@H]([C@H](C)COC(=O)NS(=O)(=O)c4ccc(N5CCCCC5)cc4)CC[C@@H]23)[C@@]2(C)CC[C@@H](O)C[C@@H]12 [Example 9] | < 100 | 208 |
| CC[C@H]1[C@@H](O)[C@@H]2[C@H](CC[C@]3(C)[C@@H]([C@H](C)CCOC(=O)N4CCCS4(=O)=O)CC[C@@H]23)[C@@]2(C)CC[C@@H](O)C[C@@H]12 [Example 74] | 100 to 1000 | 358 |
| CC[C@H]1[C@@H](O)[C@@H]2[C@H](CC[C@]3(C)[C@@H]([C@H](C)CCOC(=O)NS(=O)(=O)c4ccc(C(C)(C)CO)cc4)CC[C@@H]23)[C@@]2(C)CC[C@@H](O)C[C@@H]12 [Example 70] | < 100 | 333 |
| CC[C@H]1[C@@H](O)[C@@H]2[C@H](CC[C@]3(C)[C@@H]([C@H](C)CCOC(=O)NCC(C)C)CC[C@@H]23)[C@@]2(C)CC[C@@H](O)C[C@@H]12 [Example 137] | 100 to 1000 | 270 |
| CC[C@H]1[C@@H](O)[C@@H]2[C@H](CC[C@]3(C)[C@@H]([C@H](C)CCOC(=O)NS(=O)(=O)c4ccc(OC)c(OC)c4)CC[C@@H]23)[C@@]2(C)CC[C@@H](O)C[C@@H]12 [Example 87] | 100 to 1000 | 274 |
| CC[C@H]1[C@@H](O)[C@@H]2[C@H](CC[C@]3(C)[C@@H]([C@H](C)COC(=O)NS(=O)(=O)c4ccc(-c5ncco5)cc4)CC[C@@H]23)[C@@]2(C)CC[C@@H](O)C[C@@H]12 [Example 44-p] | < 100 | 218 |
| CC[C@H]1[C@@H](O)[C@@H]2[C@H](CC[C@]3(C)[C@@H]([C@H](C)CCCOC(=O)N4CCCCC4)CC[C@@H]23)[C@@]2(C)CC[C@@H](O)C[C@@H]12 [Example 165] | 1000 to 10000 | 158 |
| CC[C@H]1[C@@H](O)[C@@H]2[C@H](CC[C@]3(C)[C@@H]([C@H](C)CCOC(=O)NS(=O)(=O)c4ccc(OC(F)(F)F)cc4)CC[C@@H]23)[C@@]2(C)CC[C@@H](O)C[C@@H]12 [Example 53] | < 100 | 411 |
| CC[C@H]1[C@@H](O)[C@@H]2[C@H](CC[C@]3(C)[C@@H]([C@H](C)CCOC(=O)N(CC)CC)CC[C@@H]23)[C@@]2(C)CC[C@@H](O)C[C@@H]12 [Example 163] | 100 to 1000 | 266 |
| CC[C@H]1[C@@H](O)[C@@H]2[C@H](CC[C@]3(C)[C@@H]([C@H](C)CCOC(=O)NS(=O)(=O)c4ccc(C(F)(F)F)cc4)CC[C@@H]23)[C@@]2(C)CC[C@@H](O)C[C@@H]12 [Example 79] | < 100 | 376 |
| CC[C@H]1[C@@H](O)[C@@H]2[C@H](CC[C@]3(C)[C@@H]([C@H](C)CCOC(=O)N4CCC[C@@H](CO)C4)CC[C@@H]23)[C@@]2(C)CC[C@@H](O)C[C@@H]12 [Example 204] | < 100 | 310 |
| CC[C@H]1[C@@H](O)[C@@H]2[C@H](CC[C@]3(C)[C@@H]([C@H](C)CCOC(=O)N[C@H](C)CCO)CC[C@@H]23)[C@@]2(C)CC[C@@H](O)C[C@@H]12 [Example 172] | 100 to 1000 | 201 |
| CC[C@H]1[C@@H](O)[C@@H]2[C@H](CC[C@]3(C)[C@@H]([C@H](C)COC(=O)NS(=O)(=O)c4ccc(C)cc4)CC[C@@H]23)[C@@]2(C)CC[C@@H](O)C[C@@H]12 [Example 5] | 100 to 1000 | 85 |
| CC[C@H]1[C@@H](O)[C@@H]2[C@H](CC[C@]3(C)[C@@H]([C@H](C)COC(=O)NS(=O)(=O)c4ccc(OC)cc4)CC[C@@H]23)[C@@]2(C)CC[C@@H](O)C[C@@H]12 [Example 44-k] | < 100 | 158 |
